These results are taken from ChEMBL document CHEMBL1136657, “Novel ether derivatives of mannopeptimycin glycopeptide antibiotic” (2003).

The subject of test [1] is Staphylococcus aureus. The test can be described thus: Minimum inhibitory concentration against Staphylococcus aureus (MSSA) was determined; Range is 2-4 ug/mL. The format is functional.
Test [2] relates to Staphylococcus aureus. The test can be described thus: Minimum inhibitory concentration against Staphylococcus aureus smith. The format is functional.
Test [3] deals with Mus musculus. In words: In vivo activity against Staphylococcus aureus smith was determined after iv administration in mice. The class given is functional.
For test [4], the system named is Enterococcus faecium. The test can be described thus: Minimum inhibitory concentration against Enterococcus faecium was determined; Range is 2-4 ug/mL. The class given is functional.
The test system of test [5] is Staphylococcus aureus. The test can be described thus: Minimum inhibitory concentration against Staphylococcus aureus (MRCNS) was determined; Range is 1-4 ug/mL. The class given is functional.
Test [6] in a line: Minimum inhibitory concentration against Gram(-) sp. was determined. The format is functional.
Test [7] concerns Enterococcus faecalis. The test can be described thus: Minimum inhibitory concentration against Enterococcus faecalis was determined. The class given is functional.
Test [8] relates to Streptococcus. The test can be described thus: Minimum inhibitory concentration against Streptococcus was determined. The class given is functional.
The test system of test [9] is Staphylococcus aureus. The test can be described thus: Minimum inhibitory concentration against Staphylococcus aureus (MRSA) was determined. The format is functional.
Test [10] relates to Candida albicans. In words: Minimum inhibitory concentration against Candida albicans was determined. The class given is functional.
Test [11] deals with Staphylococcus aureus. In words: Minimum inhibitory concentration against Staphylococcus aureus (MSCNS) was determined; Range is 0.5-1 ug/mL. The class given is functional.
Test [12] deals with Streptococcus agalactiae. The test can be described thus: Minimum inhibitory concentration against Streptococcus agalactiae (GC4564) was determined. The format is functional.
The nature of test [13]: Minimum inhibitory concentration against SCN (GC 4547) was determined. The class given is functional.
Test [14] deals with Enterococcus faecium. The test can be described thus: Minimum inhibitory concentration against Enterococcus faecium (GC 2243) was determined. The format is functional.
Test [15] concerns Escherichia coli. The test can be described thus: Minimum inhibitory concentration against Escherichia coli (GC 4564) was determined. The class given is functional.
Test [16] deals with Streptococcus pneumoniae. The test can be described thus: Minimum inhibitory concentration against Streptococcus pneumoniae (GC 1894) was determined. The class given is functional.
Test [17] has as its system Candida albicans. In words: Minimum inhibitory concentration against Candida albicans GC 3066 was determined. The format is functional.
For test [18], the system named is Staphylococcus haemolyticus. In words: Minimum inhibitory concentration against Staphylococcus haemolyticus (GC 4546) was determined.
Test [19] has as its system Streptococcus pneumoniae. The test can be described thus: Minimum inhibitory concentration against Streptococcus pneumoniae (GC 6242) was determined. The format is functional.
The test system of test [20] is Enterococcus avium. In words: Minimum inhibitory concentration against Enterococcus avium (GC 4558) was determined. The class given is functional.
For test [21], the system named is Streptococcus pneumoniae. The test can be described thus: Minimum inhibitory concentration against Streptococcus pneumoniae (GC 4565) was determined. The class given is functional.
Test [22] concerns Escherichia coli. In words: Minimum inhibitory concentration against Escherichia coli (GC 4560) was determined. The format is functional.
Test [23] relates to Enterococcus faecalis. In words: Minimum inhibitory concentration against Enterococcus faecalis (GC 4554) was determined. The format is functional.
Test [24] can be described thus: Minimum inhibitory concentration against SCN (GC 6257) was determined. The format is functional.
The subject of test [25] is Escherichia coli. The test can be described thus: Minimum inhibitory concentration against Escherichia coli (GC 2203) was determined. The format is functional.
Test [26] concerns Enterococcus faecalis. In words: Minimum inhibitory concentration against Enterococcus faecalis (GC 3059) was determined. The format is functional.
A short description of test [27]: Minimum inhibitory concentration against SCN (GC 4549) was determined. The class given is functional.
Test [28] concerns Enterococcus faecalis. In words: Minimum inhibitory concentration against Enterococcus faecalis (GC 2242) was determined. The format is functional.
Test [29] has as its system Micrococcus luteus. In words: Minimum inhibitory concentration against Sarcina lutea (GC 4562) was determined. The class given is functional.
Test [30] deals with Pseudomonas aeruginosa. In words: Minimum inhibitory concentration against Pseudomonas aeruginosa (GC 2214) control was determined. The class given is functional.
In test [31] the test system is Enterococcus faecalis. The test can be described thus: Minimum inhibitory concentration against Enterococcus faecalis (GC 4553) was determined. The class given is functional.
The nature of test [32]: Minimum inhibitory concentration against SCN (GC 4551) was determined. The format is functional.
The subject of test [33] is Enterococcus faecalis. In words: Minimum inhibitory concentration against Enterococcus faecalis (GC 4555) was determined. The format is functional.
Test [34] is described as follows: Minimum inhibitory concentration against SCN (GC 4548) was determined. The class given is functional.
Test [35] deals with Enterococcus faecalis. In words: microbe, parasite or virus in culture.
For test [36], the system named is Streptococcus. The test can be described thus: Minimum inhibitory concentration against Streptococcus was determined; Range is <=0.12-0.5 ug/mL. The class given is functional.
For test [37], the system named is Morganella morganii. In words: Minimum inhibitory concentration against Morganella morganii (GC 4381) was determined. The format is functional.
Test [38] has as its system Enterococcus faecalis. In words: Minimum inhibitory concentration against Enterococcus faecalis (GC 4552) was determined. The class given is functional.
In test [39] the test system is Streptococcus pyogenes. The test can be described thus: Minimum inhibitory concentration against Streptococcus pyogenes (GC 4563) was determined. The format is functional.
In test [40] the test system is Enterococcus faecalis. In words: Minimum inhibitory concentration against Enterococcus faecalis (GC 2691) was determined. The format is functional.
In test [41] the test system is Enterococcus faecalis. In words: Minimum inhibitory concentration against Enterococcus faecalis (GC 6189) was determined. The format is functional.
Where [42] appears, read: Mus musculus, iv, read-out: ED50.

As a reminder, the ED50 is the dose at which the effect has come halfway, by size or by number of responders.

Converted amounts (≈) assume the structure as drawn.

With `C[C@@H](c1ccccc1)[C@@H]1NC(=O)CNC(=O)[C@H](CO)NC(=O)[C@@H]([C@@H](O)[C@@H]2CN=C(N)N2[C@H]2O[C@H](O)[C@@H](O)[C@H](O)[C@@H]2O)NC(=O)[C@H]([C@@H](O)[C@@H]2CN=C(N)N2)NC(=O)[C@@H](Cc2ccc(O[C@H]3O[C@H](CO)[C@@H](OC4O[C@H](COCc5ccc(OCc6ccccc6)cc5)[C@@H](O)[C@H](O)[C@@H]4O)[C@H](O)[C@@H]3O)cc2)NC1=O` (stereo not given in full), the MIC in [1] was 2 µg/mL (≈ 1.35 µM); in [2], 2 µg/mL (≈ 1.35 µM); in test [4] it was 2 µg/mL (≈ 1.35 µM); in [5], 1 µg/mL (≈ 0.677 µM); in test [6], above 128 µg/mL; in test [7], 4 µg/mL (≈ 2.71 µM). In addition, the MIC in [8] was at most 0.12 µg/mL; in test [9], 4 µg/mL (≈ 2.71 µM); in test [10], above 128 µg/mL; in [11], 0.5 µg/mL (≈ 0.338 µM). The ED50 in test [3] (setting [42]) stood at 0.25 mg/kg.

With `CN[C@H](CC(C)C)C(=O)N[C@H]1C(=O)N[C@@H](CC(N)=O)C(=O)N[C@H]2C(=O)N[C@H]3C(=O)N[C@H](C(=O)N[C@H](C(=O)O)c4cc(O)cc(O)c4-c4cc3ccc4O)[C@H](O)c3ccc(c(Cl)c3)Oc3cc2cc(c3O[C@@H]2O[C@H](CO)[C@@H](O)[C@H](O)[C@H]2O[C@H]2C[C@](C)(N)[C@H](O)[C@H](C)O2)Oc2ccc(cc2Cl)[C@H]1O` [VANCOMYCIN], the MIC in [12] was 0.5 µg/mL (≈ 0.345 µM); in test [13], 2 µg/mL (≈ 1.38 µM); in test [14] it was above 64 µg/mL; in test [15], above 64 µg/mL; in test [16], 0.12 µg/mL (≈ 0.0828 µM); in test [17] it was above 64 µg/mL. Further, the MIC is 1 µg/mL (≈ 0.69 µM) in test [18]; 0.5 µg/mL (≈ 0.345 µM) in [19]; above 64 µg/mL in [20]; 0.25 µg/mL (≈ 0.173 µM) in [21]; 0.5 µg/mL (≈ 0.345 µM) in test [22]; 0.5 µg/mL (≈ 0.345 µM) in test [23]. The MIC in test [24] was 0.5 µg/mL (≈ 0.345 µM); in test [25], above 64 µg/mL; in test [26], above 64 µg/mL; in [6], above 128 µg/mL; in [27] it was 0.5 µg/mL (≈ 0.345 µM); in test [28] it was above 64 µg/mL. The MIC in test [29] is 1 µg/mL (≈ 0.69 µM); in [30], above 64 µg/mL; in test [31] it was 0.5 µg/mL (≈ 0.345 µM); in test [32] it was 2 µg/mL (≈ 1.38 µM); in [33], 2 µg/mL (≈ 1.38 µM); in [34] it was 2 µg/mL (≈ 1.38 µM). Moreover, the MIC in test [35] was 0.5 µg/mL (≈ 0.345 µM); in test [36] it was at most 0.12 µg/mL; in test [37], above 64 µg/mL; in [10], above 128 µg/mL; in test [38] it was 1 µg/mL (≈ 0.69 µM); in [39], 0.25 µg/mL (≈ 0.173 µM). Besides, the MIC was 1 µg/mL (≈ 0.69 µM) in [40] and above 64 µg/mL in [41]. For the same compound, the values for the median effective dose (ED50) in [3] and in test [3] (setting [42]) were 1 mg/kg and 0.5 mg/kg, respectively.
